# Columns and labels:
# MM cells [1] = experiment: Flow cytometry of mechanisms of APMS uptake; format: cell-based, human; details: 30 min pretreatment; chlorpromazine 5 μg/ml, cytochalasin D 1 μM, filipin 6.25 μg/ml; vs control at 37° C.
# Method: Cells were exposed for 30 min to chemical inhibitors of specific uptake mechanisms: chlorpromazine ([…]), cytochalasin D (1 μM), or filipin (6.25 μg/ml), i.e. at effective concentrations as reported in the literature (25-29), or incubated at 4° C. for 30 min prior to addition of APMS for various amounts of time. Hoechst 33342 nucleic acid dye (16.2 μM) (Molecular Probes, Invitrogen) was added 15 min prior to harvesting cells. Cells were washed once in PBS and removed from dishes using Accutase cell detachment solution (Innovative Cell Technologies, Inc. San Diego, Calif.), pelleted by centrifugation, resuspended in calcium and magnesium-free phosphate buffered saline (PBS), and kept on ice until analyzed. Samples were analyzed using a BD LSRII flow cytometer (BD Biosciences, San Jose, Calif.) equipped with a Sapphire 488 (Coherent, Santa Clara, Calif.) laser which emits at 488 nm to excite the Alexa 488 dye, and a solid state Xcite (Lightwave) which emits at 355 nm to excite the Hoechst 333342 nucleic acid dye (Molecular Probes, Invitrogen). Data analysis was performed at the time of acquisition using Flow Jo (Tree Star, Inc., Ashland, Oreg.). This software package is an experiment-based flow cytometry data analysis package designed for multi-color research.
# To verify that the gating used in determining cell populations was accurate, FACS analysis was performed on different populations. Populations of cells/APMS were selected based on their locations on histograms, and were sorted, collected and mounted on glass slides using cytocentriftigation. […] The fluorescent signals from Alexa 488 were detected using 530/30 BP and 505 LP filters. Hoechst staining was detected using 440/40 BP filter. Identification and quantification of populations on cytospins were performed manually with phase contrast and fluorescence microscopy using an Olympus BX50 microscope (Olympus America, Lake Success, N.Y.).
# NF-κB = NF-κB electrophoretic mobility shift assay; format: cell-based, human
# Method: NF-κB Electrophoretic Mobility Shift Assay. Electrophoretic gel mobility shift assays were used to assess the binding of NF-κB to DNA. Nuclear extracts of MM cells treated with 80 nM DOX, 100 μM DOX, APMS-TEG, APMS-TEG preloaded with 80 nM DOX (APMS-DOX80) for 4 h, were prepared as described previously (14). Samples were treated with or without TNF-α, 1 h prior to harvesting nuclear protein. The amount of protein in each sample was determined with the Bio-Rad protein assay (Bio-Rad). A ^32P-end-labeled double stranded oligodeoxynucleotide representing the specific element that contains an NF-κB consensus sequence (E3292, Promega, Madison, Wis.) was incubated with 3 μg of extract as described previously (15). The components of the NF-κB complex were identified by antibodies specific for p50 and p65 proteins (Santa Cruz Biotechnology, Inc., Santa Cruz, Calif.). Autoradiograms were developed and quantitated with a Bio-Rad phosphorimager.
# human mesothelioma cells = format: cell-based
# Method: We have also modified existing HPLC methods (Andersen et al, 1993, 1994; De Bruijn et al, 1999) to compare the amounts of DOX transferred to cellular interiors by DOX-loaded APMS and DOX alone. More DOX is transferred to cells when it is preloaded into APMS than when it is administered alone. Briefly, measurement of cellular DOX concentrations was accomplished by lysis and enzymatic digestion of the cellular contents, along with centrifugation. […] Similar methodology was used to quantify the amount of extracellular DOX, and since the total amount of DOX within the APMS particles prior to its addition to the cell culture was known, the amount of DOX remaining within the particles could be determined (FIG. 7). Intracellular and extracellular amounts of DOX were measured by fluorescence HPLC after digestion and release of DOX from cellular material (FIG. 7A). […]
# Preloading APMS with Doxorubicin (DOX). […] The concentration of DOX within the APMS were calculated theoretically and verified via HPLC following hydration overnight in water or methanol at room temperature, as previously described (13). Concentrations of DOX in cells were measured. […] Similar methodology was used to quantify the amount of extracellular DOX, and since the total amount of DOX within the APMS particles prior to its addition to the cell culture was known, the amount of DOX remaining within the particles could be determined.
# MM cells [2] = experiment: MTS cell viability assay; format: cell-based, human; details: 80 nM DOX; varying amounts of time
# Method: Cell viability was measured in treated cells by using the calorimetric MTS Assay, CellTiter 96 AQueous One Solution Cell Proliferation Assay (Promega) as per the manufacturer's recommendations. Briefly, 5×10^3 cells were plated in a 96-well microtiter plate and allowed to recover overnight. Medium was aspirated, and cells were maintained in a low serum-containing medium for 24 h prior to treatment for varying amounts of time with APMS and/or DOX. MTS reagent was added, plates were incubated at 37° C. for 2-3 h and the absorbance of the wells was read at 492 nm as a measure of cell viability.
# [3] = test system: phosphorylated histone protein H2AX (γH2AX); experiment: Immunocytochemical analysis of γH2AX; format: cell-based, human; details: 80 nM DOX; 8 and 24 h; compared to control
# Method: Mechanisms of Cytotoxicity. To explore mechanisms of toxicity of DOX at low concentrations delivered by APMS, levels of phosphorylated histone protein H2AX (γH2AX), a marker of DNA double strand breaks, and Apoptosis Inducing Factor (AIF), a marker of mitochondrial mediated apoptosis, were analyzed.
# Immunocytochemical Analysis ofphosphorylated histone protein H2AX (γH2AX). Monolayers of cells were grown on glass coverslips and treated as described above. Cells were then washed in PBS, then fixed in 4% paraformaldehyde and permeabilized in 0.1% Triton X-100. Cells were blocked for 1 h at room temperature in PBS containing 3% bovine serum albumin (BSA), then incubated in a 1:500 dilution of mouse monoclonal anti-phospho-histone H2AX antibody (#05-636, Upstate Cell Signaling, Charlottesville, Va.) in 3% BSA overnight at 4° C. Cells were then washed in PBS and incubated in a 1:300 dilution of goat anti-mouse IgO conjugated to Alexa-647 fluorescent tag (Molecular Probes, Invitrogen) in PBS for 45 min at room temperature in the dark. […] Coverslips were then washed and mounted on glass slides using Aqua Poly/Mount (#18606, Polysciences, Inc., Warrington, Pa.) and analyzed using a Zeiss LSM 510 META confocal scanning laser microscope (Carl Zeiss Microimaging).
# ERK1/2 = experiment: Western blot for phosphorylated ERK1/2; format: cell-based, human; details: 80 nM DOX; 4, 8, 24 and 48 h
# Method: (§1) Western Blot Analyses for Phosphorylated ERK's1/2 and AKT To determine whether DOX at low concentrations delivered by APMS modified signaling pathways associated with cell survival, nearly confluent MM cells were washed 3× with cold PBS, scraped from culture plates, and collected by centrifugation at 14,000 rpm for 1 min. The pellet was resuspended in lysis buffer [20 mM Tris (pH 7.4), 1% Triton X-100, 10% glycerol, 137 mM NaCl, 2 mM EDTA, 25 mM β-glycerophosphate, 1 mM Na3VO4, 2 mM pyrophosphate, 1 mM PMSF, 10 μg/ml leupeptin, 1 mM DTT, 10 mM NaF, 1% aprotinin], incubated at 4° C. for 15 min, and centrifuged at 14,000 rpm for 20 min. Protein concentrations were determined using a Bio-Rad RC-DC Assay (Bio-Rad Laboratories, Hercules, Calif.). […] of protein in sample buffer [62.5 mM Tris-HCl (pH 6.8), 2% sodium dodecyl sulfate (SDS), 10% glycerol, 50 mM dithiothreitol, 0.1% w/v bromophenol blue] was resolved by electrophoresis in 10% SDS-polyacrylamide gels, and transferred to nitrocellulose using a Mini Trans-Blot Cell apparatus (Bio-Rad Laboratories). […] Blots were washed 3× in TBS/0.1% Tween-20, and protein bands were visualized with the ECL Western Blotting Detection Reagents (Amersham Biosciences, GE Healthecare UK Limited, Buckinghamshire, UK) and quantitated using a Bio-Rad phosphorimager.
# AKT = experiment: Western blot for phosphorylated AKT; format: cell-based, human; details: 80 nM DOX; each time point
# Method: as §1
# [4] = test system: human mesothelioma (MM) cells; experiment: LDH release assay of cell lysis, MM cells; details: doses of DOX ranging from 800 nM to 2000 nM; 48 h
# Method: Cells were plated and grown to 70-80% confluence at 37° C. in complete medium. Medium was aspirated and replaced with maintenance medium containing 0.5% FBS, and incubated for 24 hrs.
# Briefly, cells were treated with APMS and/or DOX alone and in combination for varying amounts of time, and 50 μl of the supernatant was removed (in triplicate) and placed into wells of a 96-well plate. Fifty μl of substrate buffer was added to each well, and the plate was incubated for 30 min at room temperature in the dark. Fifty μl of stop solution was then added, and plates were read at 490 nm.
molecule,measurement,setting,value
CCCCC[C@@H](O)[C@H]1C(=O)O[C@H](C)[C@@H](O)/C=C/C=C/C=C/C=C/C=C(\C)[C@@H](O)C[C@H](O)C[C@H](O)C[C@H](O)C[C@H](O)C[C@H](O)C[C@@H]1O [filipin],effect of inhibitor pretreatment on APMS-TEG particle uptake,MM cells [1],no inhibition
TNF-α,NF-κB DNA binding,NF-κB; 1 hr incubation,dramatically increased DNA binding
CN(C)CCCN1c2ccccc2Sc2ccc(Cl)cc21 [chlorpromazine],effect of inhibitor pretreatment on APMS-TEG particle uptake,MM cells [1],no inhibition
C=C1[C@@H](C)[C@H]2[C@H](Cc3ccccc3)NC(=O)[C@]23[C@H](OC(C)=O)/C=C/[C@@](C)(O)C(=O)[C@@H](C)C/C=C/[C@H]3[C@@H]1O [cytochalasin D],effect of inhibitor pretreatment on APMS-TEG particle uptake,MM cells [1],decreased numbers of APMS-containing cells
"COc1cccc2c1C(=O)c1c(O)c3c(c(O)c1C2=O)C[C@@](O)(C(=O)CO)C[C@@H]3O[C@H]1C[C@H](N)[C@H](O)[C@H](C)O1 [DOX, doxorubicin]",amount of DOX transferred to the cell relative to DOX preloaded into APMS,human mesothelioma cells,Approximately half as much
same,"maximum amount of DOX transferred to the cellular interior, of the initial dose",human mesothelioma cells; human,approximately 25%
same,cell viability (MTS),MM cells [2],no significant difference
same,levels of γH2AX,[3],increased
same,phospho-ERK1/2: total ERK1/2 ratio,ERK1/2,do not significantly affect
same,phospho-AKT: total AKT ratios,AKT,did not significantly affect
same,NF-κB-DNA binding after adding TNF-α 1 hr prior to harvesting,NF-κB; 80 nM DOX,further increased the DNA binding
same,NF-κB-DNA binding after adding TNF-α for 1 h prior to harvesting,NF-κB; 100 μM DOX,could not be reversed
same,NF-κB-DNA binding activity,"NF-κB; 100 μM DOX (a lethal concentration), 4 h",ablated
same,NF-κB-DNA binding activity,"NF-κB; 4 h exposure, 80 nM DOX, compared to controls",increased
same,cell death compared to total LDH released from lysed cells,[4],10-13%
